# Laboratory results as given in patent US9273046B2, “Fused tricyclic compounds as Raf kinase inhibitors” (BeiGene, LTD., priority 2011, dated 2016).
# Experiments:
# C-Raf (Y340D/Y341D) = C-Raf (Y340D/Y341D) (Homo sapiens (Human), UniProt P04049, Y340D/Y341D); assay: Raf IC50 assay, time-resolved fluorescence energy transfer (TR-FRET), C-Raf; type: biochemical; details: 0.5 nM C-Raf, 0.1 mM ATP, GST-tagged MEK1 substrate, 60 min preincubation
# Method: The assay was carried out in reactions (10 μL) containing 0.0625 nM B-Raf or 0.5 nM C-Raf, 25 mM Tris pH7.4, 10 mM MgCl2, 0.5 mM EGTA, 0.5 mM […], 5 mM beta-glycerophosphate, 0.01% Triton X-100, 2.5 mM DTT, 0.1% BSA, 0.1 mM ATP, 13.7 nM GST-tagged MEK1 (Full-length protein with K97R mutation, recombinant protein purified from bacterial expression system) and 0-5 μM compounds disclosed herein (final concentration of 1% DMSO). The enzyme was incubated with the compounds at room temperature for 60 minutes and the reactions were initiated by the addition of ATP and GST-MEK1. After incubating at room temperature for 60 minutes, an equal volume of stop buffer containing 25 mM Tris pH7.4, 400 mM KF, 50 mM EDTA, 0.01% BSA, 0.01% Triton X-100, 1 test of Eu3+ Cryptate-conjugated rabbit polyclonal antibody anti-Phospho MEK1/2 (Ser217/221) and 1 test of d2-conjugated mouse monoclonal antibody anti-glutathione S-transferase was added to stop the reactions. Plates were sealed and incubated at room temperature for 2 hours, and then the TR-FRET signals were read on BMG PHERAstar FS instrument. The IC50 for each compound was calculated by non linear regression by Graphpad Prism software.
# B-Raf (V600E) = B-Raf (V600E) (Homo sapiens (Human), UniProt P15056, V600E); assay: Raf IC50 assay, time-resolved fluorescence energy transfer (TR-FRET), B-Raf; type: biochemical; details: 0.0625 nM B-Raf, 0.1 mM ATP, GST-tagged MEK1 substrate, 60 min preincubation; read-out: B-Raf (V600E) IC50
# Sequence of B-Raf (V600E) (P15056 whole entry V600E): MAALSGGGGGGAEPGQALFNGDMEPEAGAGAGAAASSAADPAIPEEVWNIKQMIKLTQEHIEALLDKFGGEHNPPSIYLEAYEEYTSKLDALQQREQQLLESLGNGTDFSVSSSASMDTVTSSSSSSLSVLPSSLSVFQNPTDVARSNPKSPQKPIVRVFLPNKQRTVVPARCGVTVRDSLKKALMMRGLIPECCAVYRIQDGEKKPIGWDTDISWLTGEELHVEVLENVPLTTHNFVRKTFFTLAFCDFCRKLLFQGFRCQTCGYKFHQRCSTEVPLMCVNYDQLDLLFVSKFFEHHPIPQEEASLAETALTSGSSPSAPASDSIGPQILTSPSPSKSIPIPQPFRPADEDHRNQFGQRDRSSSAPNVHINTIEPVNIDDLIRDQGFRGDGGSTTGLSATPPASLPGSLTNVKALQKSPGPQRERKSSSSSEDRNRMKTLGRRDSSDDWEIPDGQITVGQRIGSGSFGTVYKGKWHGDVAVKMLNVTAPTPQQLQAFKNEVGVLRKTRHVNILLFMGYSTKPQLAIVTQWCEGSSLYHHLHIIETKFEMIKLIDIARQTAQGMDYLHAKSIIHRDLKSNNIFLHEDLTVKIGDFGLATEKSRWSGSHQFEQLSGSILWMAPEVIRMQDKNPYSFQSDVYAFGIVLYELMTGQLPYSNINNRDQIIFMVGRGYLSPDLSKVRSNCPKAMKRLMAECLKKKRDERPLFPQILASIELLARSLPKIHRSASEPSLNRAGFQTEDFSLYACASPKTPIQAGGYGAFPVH
# Method: The enzyme was incubated with the compounds at room temperature for 60 minutes and the reactions were initiated by the addition of ATP and GST-MEK1. […] Plates were sealed and incubated at room temperature for 2 hours, and then the TR-FRET signals were read on BMG PHERAstar FS instrument. The IC50 for each compound was calculated by non linear regression by Graphpad Prism software.
# Sequence of C-Raf (Y340D/Y341D) (P04049 whole entry Y340D/Y341D): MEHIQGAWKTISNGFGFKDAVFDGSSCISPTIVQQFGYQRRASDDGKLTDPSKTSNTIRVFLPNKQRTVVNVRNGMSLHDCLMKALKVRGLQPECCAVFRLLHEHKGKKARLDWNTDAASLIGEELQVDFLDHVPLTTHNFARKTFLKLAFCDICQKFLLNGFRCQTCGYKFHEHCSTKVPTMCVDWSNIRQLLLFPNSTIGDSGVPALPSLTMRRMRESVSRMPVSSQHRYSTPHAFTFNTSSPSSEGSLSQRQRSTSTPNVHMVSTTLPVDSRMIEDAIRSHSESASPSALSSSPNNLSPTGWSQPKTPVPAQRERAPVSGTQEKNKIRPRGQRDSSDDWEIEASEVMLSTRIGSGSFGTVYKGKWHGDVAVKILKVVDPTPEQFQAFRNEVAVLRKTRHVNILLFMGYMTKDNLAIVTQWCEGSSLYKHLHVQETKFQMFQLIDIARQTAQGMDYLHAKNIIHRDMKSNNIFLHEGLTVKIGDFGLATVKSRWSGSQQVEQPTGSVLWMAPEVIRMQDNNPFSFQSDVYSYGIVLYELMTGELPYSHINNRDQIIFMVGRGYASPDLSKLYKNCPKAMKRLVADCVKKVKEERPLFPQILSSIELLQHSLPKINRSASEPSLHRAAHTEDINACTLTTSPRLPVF
compound,measurement,setting,value
N#Cc1ccc2nc(C3C4Oc5ccc(Oc6ccnc7c6CCC(=O)N7)cc5C43)[nH]c2c1 (stereo not drawn) [Compound 2.6],IC50,C-Raf (Y340D/Y341D),4.5 nM
same,IC50,B-Raf (V600E),22 nM
O=C1CCc2c(Oc3ccc4c(c3)C3C(O4)C3c3nc4ccc(F)cc4[nH]3)ccnc2N1 (stereo not drawn) [Compound 2.7],IC50,C-Raf (Y340D/Y341D),2.1 nM
same,IC50,B-Raf (V600E),10 nM
Cc1ccc2nc(C3C4Oc5ccc(Oc6ccnc7c6CCC(=O)N7)cc5C43)[nH]c2c1 (stereo not drawn) [Compound 2.8],IC50,C-Raf (Y340D/Y341D),0.71 nM
same,IC50,B-Raf (V600E),3.7 nM
O=C1CCc2c(Oc3ccc4c(c3)C3C(O4)C3c3nc4ccncc4[nH]3)ccnc2N1 (stereo not drawn) [Compound 2.9],IC50,C-Raf (Y340D/Y341D),4.5 nM
same,IC50,B-Raf (V600E),42 nM
O=C1CCc2c(Oc3ccc4c(c3)C3C(O4)C3c3nc4c(Cl)cc(C(F)(F)F)cc4[nH]3)ccnc2N1 (stereo not drawn) [Compound 2.10],IC50,C-Raf (Y340D/Y341D),25 nM
same,IC50,B-Raf (V600E),80 nM
O=C1CCc2c(Oc3ccc4c(c3)C3C(O4)C3c3nc4cc(F)c(F)cc4[nH]3)ccnc2N1 (stereo not drawn) [Compound 2.11],IC50,C-Raf (Y340D/Y341D),3.3 nM
same,IC50,B-Raf (V600E),5.9 nM
O=C1CCc2c(Oc3ccc4c(c3)C3C(O4)C3c3nc4ccc(Cl)cc4[nH]3)ccnc2N1 (stereo not drawn) [Compound 2.12],IC50,C-Raf (Y340D/Y341D),4.1 nM
same,IC50,B-Raf (V600E),12 nM
O=C1CCc2c(Oc3ccc4c(c3)C3C(O4)C3c3nc4ccc(Br)cc4[nH]3)ccnc2N1 (stereo not drawn) [Compound 2.13],IC50,C-Raf (Y340D/Y341D),1.7 nM
same,IC50,B-Raf (V600E),7.2 nM
O=C1CCc2c(Oc3ccc4c(c3)C3C(O4)C3c3nc4ccc(OC(F)(F)F)cc4[nH]3)ccnc2N1 (stereo not drawn) [Compound 2.14],IC50,C-Raf (Y340D/Y341D),9.7 nM
same,IC50,B-Raf (V600E),28 nM
Cn1c(C2C3Oc4ccc(Oc5ccnc6c5CCC(=O)N6)cc4C32)nc2ccccc21 (stereo not drawn) [Compound 2.15],IC50,C-Raf (Y340D/Y341D),3.6 nM
same,IC50,B-Raf (V600E),12 nM
COc1ccc2nc(C3C4Oc5ccc(Oc6ccnc7c6CCC(=O)N7)cc5C43)[nH]c2c1 (stereo not drawn) [Compound 2.16],IC50,C-Raf (Y340D/Y341D),3.8 nM
same,IC50,B-Raf (V600E),15 nM
O=C1CCc2c(Oc3ccc4c(c3)C3C(O4)C3c3nc4cc(Cl)c(F)cc4[nH]3)ccnc2N1 (stereo not drawn) [Compound 2.17],IC50,C-Raf (Y340D/Y341D),5.9 nM
same,IC50,B-Raf (V600E),5.4 nM
O=C1CCc2c(Oc3ccc4c(c3)C3C(O4)C3c3nc4cccc(C(F)(F)F)c4[nH]3)ccnc2N1 (stereo not drawn) [Compound 2.18],IC50,C-Raf (Y340D/Y341D),6.2 nM
same,IC50,B-Raf (V600E),89 nM
O=C1CCc2c(Oc3ccc4c(c3)C3C(O4)C3c3nc4cccc(F)c4[nH]3)ccnc2N1 (stereo not drawn) [Compound 2.19],IC50,C-Raf (Y340D/Y341D),1.6 nM
same,IC50,B-Raf (V600E),11 nM
CC(C)(C)c1ccc2nc(C3C4Oc5ccc(Oc6ccnc7c6CCC(=O)N7)cc5C43)[nH]c2c1 (stereo not drawn) [Compound 2.20],IC50,C-Raf (Y340D/Y341D),4.4 nM
same,IC50,B-Raf (V600E),33 nM
NC(=O)c1ccc2nc(C3C4Oc5ccc(Oc6ccnc7c6CCC(=O)N7)cc5C43)[nH]c2c1 (stereo not drawn) [Compound 2.22],IC50,C-Raf (Y340D/Y341D),1 nM
same,IC50,B-Raf (V600E),4 nM
Cn1c(C2C3Oc4ccc(Oc5ccnc6c5CCC(=O)N6)cc4C32)nc2ccc(C(F)(F)F)cc21 (stereo not drawn) [Compound 2.23],IC50,C-Raf (Y340D/Y341D),35 nM
same,IC50,B-Raf (V600E),204 nM
Cn1c(C2C3Oc4ccc(Oc5ccnc6c5CCC(=O)N6)cc4C32)nc2cc(C(F)(F)F)ccc21 (stereo not drawn) [Compound 2.24],IC50,C-Raf (Y340D/Y341D),4.3 nM
same,IC50,B-Raf (V600E),47 nM
O=C1CCc2c(Oc3cccc4c3OC3C(c5nc6ccc(C(F)(F)F)cc6[nH]5)C43)ccnc2N1 (stereo not drawn) [Compound 2.25],IC50,C-Raf (Y340D/Y341D),36 nM
same,IC50,B-Raf (V600E),849 nM
O=C1CCc2c(Oc3ccc4c(c3)C3C(O4)C3c3nc(-c4ccncc4)c[nH]3)ccnc2N1 (stereo not drawn) [Compound 2.31],IC50,C-Raf (Y340D/Y341D),0.35 nM
same,IC50,B-Raf (V600E),3.7 nM
O=C1CCc2c(Oc3ccc4c(c3)C3C(O4)C3c3nc(-c4ccccc4Cl)c[nH]3)ccnc2N1 (stereo not drawn) [Compound 2.32],IC50,C-Raf (Y340D/Y341D),0.9 nM
same,IC50,B-Raf (V600E),3.3 nM
